Experimental data published in patent US9006278B2, “Controlled release systems of pluribioactive antifungal drugs and applications thereof” (Poly-Med, Inc., priority 2010, dated 2015).

How the values were obtained:
Assay type in all cases: cell-based
Candida albicans = assay: Broth culture growth inhibition, absorbance at 600 nm (Candida albicans); conditions: overnight (approx. 16 hours), read-out: % Inhibition C. albicans
Method: (§1) Bacterial and fungal cultures (Staphylococcus aureus and Candida albicans) were maintained according to manufacturer (ATCC) instructions. Broth was inoculated according to 0.5 McFarland standard (0.05 absorbance reading). Miconazole or ketoconazole was dissolved in ethanol to create a stock solution. Cultures were incubated overnight (approximately 16 hours), at which time relative absorbance was recorded for each sample using a spectrophotometer (600 nm wavelength). Absorbance values were then used to calculate percent inhibition.

[1] = system: umbilical vein endothelium cells; assay: Cell viability, CellTiter 96 AQueous One (endothelium); conditions: Homo sapiens, 48 h, 2 days, read-out: % Inhibition Endothelial
Method: (§2) To examine the effect of miconazole and ketoconazole on cancer cells (SKOV3, OVCAR3, and MCF7) and vascular cells (human aortic smooth muscle and umbilical vein endothelium), each cell type was seeded in separate 24-well plates at a density of approximately 50,000 to 100,000 cells/cm^2. After incubation under standard cell culture conditions (that is, a 37° C., humidified, 5% CO2 environment) for approximately 24 hours, media was aspirated from each well, and replaced with the appropriate treatments. Miconazole or ketoconazole was dissolved in ethanol to create a stock solution. […] The same volume of ethanol was added to control wells, but no drug was present. Cells were further incubated for 2 days. At that time, cell viability was measured using a commercially available kit, according to manufacturer instructions (CellTiter 96® AQueous One Solution Cell Proliferation Assay, Promega). All samples were prepared in triplicate. Percent inhibition was then calculated using the absorbance values.

[2] = system: SKOV3 ovarian cancer cells; assay: Cell viability, CellTiter 96 AQueous One (SKOV3); conditions: Homo sapiens, SK-OV-3, 48 h, 2 days
Method: as §2

[3] = system: human aortic smooth muscle cells; assay: Cell viability, CellTiter 96 AQueous One (smooth muscle); conditions: 48 h, 2 days
Method: as §2

[4] = system: OVCAR3 ovarian cancer cells; assay: Cell viability, CellTiter 96 AQueous One (OVCAR3); conditions: Homo sapiens, OVCAR-3, 48 h, 2 days
Method: as §2

MCF7 breast cancer cells = assay: Cell viability, CellTiter 96 AQueous One (MCF7); conditions: Homo sapiens, MCF7, 48 h, 2 days
Method: as §2

Staphylococcus aureus = assay: Broth culture growth inhibition, absorbance at 600 nm (Staphylococcus aureus); conditions: overnight (approx. 16 hours), read-out: % Inhibition S. aureus
Method: as §1

In the case of `CC(=O)N1CCN(c2ccc(OCC3COC(Cn4ccnc4)(c4ccc(Cl)cc4Cl)O3)cc2)CC1` (stereo not shown) [Ketoconazole, ketoconazole], the inhibition at 40 µg/mL (Candida albicans; 40 μg/mL) is reported as 93.8%, the inhibition at 80 µg/mL (Candida albicans; 80 μg/mL) is reported as 98.6% and the inhibition at 40 µg/mL ([1]; 40 μg/mL) is reported as 16%. For the same compound, the inhibition at 80 µg/mL ([1]; 80 μg/mL) was 38%, the inhibition at 40 µg/mL ([2]; 40 μg/mL) was 0% and the inhibition at 80 µg/mL ([2]; 80 μg/mL) was 51%. For the same compound, the inhibition at 40 µg/mL ([3]; 40 μg/mL) was 31%, the inhibition at 80 µg/mL ([3]; 80 μg/mL) was 68% and the inhibition at 40 µg/mL ([4]; 40 μg/mL) was 0%. For the same compound, the inhibition at 80 µg/mL ([4]; 80 μg/mL) was 57%, the inhibition at 40 µg/mL (MCF7 breast cancer cells; 40 μg/mL) was 58% and the inhibition at 80 µg/mL (MCF7 breast cancer cells; 80 μg/mL) was 50%. It also gave an inhibition at 40 µg/mL (Staphylococcus aureus; 40 μg/mL) of 32.7% and an inhibition at 80 µg/mL (Staphylococcus aureus; 80 μg/mL) of 67.6%.
In the case of `Clc1ccc(COC(Cn2ccnc2)c2ccc(Cl)cc2Cl)c(Cl)c1` (stereo not shown) [Miconazole, miconazole], the inhibition at 20 µg/mL (Candida albicans; 20 μg/mL) is reported as 98.3%, the inhibition at 60 µg/mL (Candida albicans; 60 μg/mL) is reported as 73.2% and the inhibition at 20 µg/mL ([1]; 20 μg/mL) is reported as 18%. For the same compound, the inhibition at 60 µg/mL ([1]; 60 μg/mL) was 58%, the inhibition at 20 µg/mL ([2]; 20 μg/mL) was 13% and the inhibition at 60 µg/mL ([2]; 60 μg/mL) was 61%. For the same compound, the inhibition at 20 µg/mL ([3]; 20 μg/mL) was 58%, the inhibition at 60 µg/mL ([3]; 60 μg/mL) was 84% and the inhibition at 20 µg/mL ([4]; 20 μg/mL) was 19%. The inhibition at 60 µg/mL ([4]; 60 μg/mL) was 57%, the inhibition at 20 µg/mL (MCF7 breast cancer cells; 20 μg/mL) was 19% and the inhibition at 60 µg/mL (MCF7 breast cancer cells; 60 μg/mL) was 55%. It also gave an inhibition at 20 µg/mL (Staphylococcus aureus; 20 μg/mL) of 76.7% and an inhibition at 60 µg/mL (Staphylococcus aureus; 60 μg/mL) of 65%.
